Measured values: the supplement of paper PMC10307832

Compound: C[C@]1(c2nc3c(C(N)=O)cccc3[nH]2)CCCN1 [Veliparib] + O=C(CCCCCCC(=O)Nc1ccccc1)NO [Vorinostat] (partner 1 µM)
Test: relative viability (nuclei count vs DMSO), 5 days (fraction); higher = more cells survive
Conditions: first compound 0.02 µM
Summary of the method: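 Lung cancer cell lines were seeded in 1536-well plates and dosed by pin tool the next day, with either a single drug or a fixed anchor-drug dose combined with five library-drug doses (not always all listed) spaced in √10 steps. Five days later, one step fixed the cells and stained their nuclei (final 0.05% Triton X-100, 1% formaldehyde, 1 ug/ml Hoechst), and nuclei were counted on 4× images. Relative viability is the nuclei count in treated wells divided by the count in vehicle wells, and each value is the median of duplicate plates.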

Row | Cell Line | relative viability
1 | NCI-H2405 | 0.812
2 | SK-LU-1 | 0.946
3 | NCI-H1437 | 0.886
4 | NCI-H596 | 0.659
5 | HCC-15 | 0.838
6 | NCI-H460 | 0.693
7 | EMC-BAC-2 | 0.606
8 | IA-LM | 0.925
9 | NCI-H2009 | 0.771
10 | COR-L 105 | 1.02
11 | NCI-H1395 | 0.432
12 | NCI-H520 | 0.769
13 | NCI-H1648 | 0.481
14 | NCI-H358 | 0.728
15 | HCC-78 | 0.5
16 | NCI-H1650 | 0.57
17 | LK-2 | 0.223
18 | NCI-H522 | 0.832
19 | NCI-H727 | 1.11
20 | NCI-H1793 | 0.654
21 | HCC-44 | 1.07
22 | NCI-H2170 | 0.795
23 | SK-MES-1 | 1.19
24 | NCI-H1944 | 0.491

Same assay, conditions: first compound 0.06325 µM

Row | Cell Line | relative viability
25 | NCI-H2342 | 0.718
26 | LU99A | 0.477
27 | NCI-H1975 | 0.688
28 | H3255 | 0.768
29 | NCI-H2023 | 0.536
30 | SK-LU-1 | 0.837
31 | NCI-H1734 | 0.772
32 | NCI-H1437 | 0.746
33 | NCI-H596 | 0.55
34 | HCC-15 | 0.927
35 | NCI-H460 | 0.608
36 | IA-LM | 0.906
37 | NCI-H2009 | 0.65
38 | COR-L 105 | 0.823
39 | NCI-H1395 | 0.485
40 | NCI-H520 | 0.62

Row | Cell Line | relative viability
41 | NCI-H358 | 0.661
42 | HCC-78 | 0.437
43 | EKVX | 0.745
44 | NCI-H1650 | 0.471
45 | EPLC-272H | 0.457
46 | LK-2 | 0.284
47 | PC-14 | 0.622
48 | SW 900 | 0.452
49 | NCI-H522 | 0.825
50 | NCI-H727 | 0.948
51 | NCI-H1793 | 0.697
52 | HCC-44 | 1.03
53 | NCI-H2170 | 0.777
54 | SK-MES-1 | 1.08
55 | NCI-H1944 | 0.498

Same assay, conditions: first compound 0.2 µM

Row | Cell Line | relative viability
56 | NCI-H2342 | 0.732
57 | LU99A | 0.396
58 | NCI-H1975 | 0.698
59 | H3255 | 0.793
60 | NCI-H2023 | 0.581
61 | NCI-H2405 | 1.01
62 | SK-LU-1 | 0.906
63 | NCI-H1734 | 0.796
64 | NCI-H1437 | 0.798
65 | ABC-1 | 0.979
66 | NCI-H596 | 0.498
67 | HCC-15 | 0.862
68 | NCI-H460 | 0.599
69 | EMC-BAC-2 | 0.646
70 | IA-LM | 0.888
71 | NCI-H2009 | 0.709
72 | COR-L 105 | 0.869

Row | Cell Line | relative viability
73 | NCI-H1395 | 0.648
74 | NCI-H520 | 0.612
75 | NCI-H358 | 0.877
76 | HCC-78 | 0.453
77 | EKVX | 0.789
78 | NCI-H1650 | 0.523
79 | EPLC-272H | 0.424
80 | LK-2 | 0.319
81 | PC-14 | 0.701
82 | SW 900 | 0.472
83 | NCI-H522 | 0.736
84 | NCI-H727 | 1.1
85 | NCI-H1793 | 0.58
86 | HCC-44 | 1.07
87 | NCI-H2170 | 0.839
88 | SK-MES-1 | 1.09
89 | NCI-H1944 | 0.388

Same assay, conditions: first compound 0.6325 µM

Row | Cell Line | relative viability
90 | NCI-H2342 | 0.714
91 | LU99A | 0.441
92 | NCI-H1975 | 0.639
93 | H3255 | 0.799
94 | NCI-H2023 | 0.472
95 | NCI-H2405 | 1.12
96 | SK-LU-1 | 0.722
97 | NCI-H1734 | 0.785
98 | NCI-H1437 | 0.887
99 | ABC-1 | 1.37
100 | NCI-H596 | 0.624
101 | HCC-15 | 0.803
102 | NCI-H460 | 0.602
103 | EMC-BAC-2 | 0.638
104 | IA-LM | 0.789
105 | NCI-H2009 | 0.708
106 | COR-L 105 | 0.698
107 | NCI-H1395 | 0.638

Row | Cell Line | relative viability
108 | NCI-H520 | 0.727
109 | NCI-H1648 | 0.572
110 | NCI-H358 | 0.669
111 | HCC-78 | 0.44
112 | EKVX | 0.626
113 | NCI-H1650 | 0.627
114 | EPLC-272H | 0.518
115 | LK-2 | 0.258
116 | PC-14 | 0.639
117 | SW 900 | 0.606
118 | NCI-H522 | 0.84
119 | NCI-H727 | 1.14
120 | NCI-H1793 | 0.807
121 | HCC-44 | 1.06
122 | NCI-H2170 | 0.786
123 | SK-MES-1 | 1.04
124 | NCI-H1944 | 0.44

Same assay, conditions: first compound 2 µM

Row | Cell Line | relative viability
125 | NCI-H2342 | 0.703
126 | LU99A | 0.402
127 | NCI-H1975 | 0.659
128 | H3255 | 0.936
129 | NCI-H2023 | 0.48
130 | NCI-H2405 | 1.09
131 | SK-LU-1 | 0.754
132 | NCI-H1734 | 0.788
133 | NCI-H1437 | 0.813
134 | ABC-1 | 0.875
135 | NCI-H596 | 0.55
136 | HCC-15 | 0.757
137 | NCI-H460 | 0.635
138 | EMC-BAC-2 | 0.493
139 | IA-LM | 0.969
140 | NCI-H2009 | 0.795
141 | COR-L 105 | 0.813
142 | NCI-H1395 | 0.499

Row | Cell Line | relative viability
143 | NCI-H520 | 0.773
144 | NCI-H1648 | 0.424
145 | NCI-H358 | 0.76
146 | HCC-78 | 0.452
147 | EKVX | 0.66
148 | NCI-H1650 | 0.6
149 | EPLC-272H | 0.474
150 | LK-2 | 0.29
151 | PC-14 | 0.64
152 | SW 900 | 0.463
153 | NCI-H522 | 0.979
154 | NCI-H727 | 1.04
155 | NCI-H1793 | 0.722
156 | HCC-44 | 1.15
157 | NCI-H2170 | 0.79
158 | SK-MES-1 | 1.07
159 | NCI-H1944 | 0.459
